Results on nine compounds are retold here after patent US9629786B2, “Monoterpene derivatives of chalcone or dihydrochalcone and their use as depigmenting agents” (PIERRE FABRE DERMO-COSMETIQUE, priority 2011, dated 2017).

One data set deals with plasmodial. The conditions noted are these: cited from earlier work.
The next data set concerns the target fungal tyrosinase. The conditions noted are these: monophenoloxidase activity on fungal tyrosinase; cited from earlier work.
The nature of data set [1]: Stability of chalcone (cyclization to flavanone). The conditions noted are these: for stability (cyclization to flavanone): purified / pure form. It counts as physicochemical. The source says: More preferably, ? is a double bond, R1=H and R2=OH, that is to say the extract according to the invention is enriched with gymnochalcone. […] In fact, cyclization of chalcones to flavanone, upon addition of a hydroxyl group on 1,4-position in the carbonyl group by a Michael type reaction, which brings about instability of the chalcones, is not observed in this case.
Thus preferably gymnochalcone will be used in the form of an extract of Helichrysum gymnocephalum.

Data set [2] concerns murine melanoma cell line B16-F10. Briefly: Inhibition of melanin synthesis, colorimetric assay on B16-F10. Type of data set: cell-based. The conditions noted are these: Mus musculus, B16-F10 cells. The source says:
Pharmacological Testing: Inhibition of Melanin Synthesis:
We have developed a test for measuring melanin synthesis by using a colorimetric assay on the murine melanoma cell line B16-F10. This assay enables to test the depigmenting power of active ingredients.

Another data set concerns cancer cell line (lung). To be noted: cited from earlier work.

With `COc1cc(O)c(C(=O)CCc2ccccc2)c(O)c1[C@H]1C=C(C)CC[C@@H]1C(C)C` [(−)-Methyl-linderatin], the anti-plasmodial activity result with plasmodial is “anti-plasmodial activity”. The IC50 is the concentration that gives 50% inhibition. In the case of `O=C(/C=C/c1ccccc1)c1c(O)cc(O)cc1O` [2′,4′,6′-Trihydroxychalcone (II), 2′,4′,6′-Trihydroxychalcone], at fungal tyrosinase, the IC50 was 120 µM. `CC1=CC(c2c(O)cc(O)c(C(=O)CCc3ccccc3)c2O)C(C(C)C)CC1` (stereo not shown) [Linderatin, linderatin]: the “stability (cyclization to flavanone)” value in data set [1] is listed as “stable in such form”. Further, half-maximal inhibition in data set [2] (IC50) was put at 5 µM. On to `CC1=CC(c2c(O)cc(O)c(C(=O)/C=C/c3ccccc3)c2O)C(C(C)(C)O)CC1` (stereo not shown) [Gymnochalcone, gymnochalcone], for which the stability in time result in data set [1] (in the extract of Helichrysum gymnocephalum) is “stable in time”. In data set [1], the “stability (cyclization to flavanone)” value is “cyclization is observed”. The compound also yielded an IC50 in data set [2] of 17 µM. For the compound `CC1=C[C@H](c2c(O)cc(O)c(C(=O)CCc3ccccc3)c2O)[C@H](C(C)C)CC1` [(−)-linderatin], the cytotoxicity result in the data set on cancer cell line (lung) is “exhibited cytotoxicity”. For the compound `COc1cc(O)c(C(=O)CCc2ccccc2)c(O)c1C1C=C(C)CCC1C(C)C` (stereo not shown) [Methyllinderatin, methyllinderatin], in data set [1], the “stability (cyclization to flavanone)” value is recorded as “stable in such form”. The compound further returned an IC50 in data set [2] of 6 µM. Regarding `OC[C@H]1O[C@@H](Oc2ccc(O)cc2)[C@H](O)[C@@H](O)[C@@H]1O` [Arbutin, reference compound], in data set [2], inhibition was half-maximal at 158 µM (IC50). The same measure, in the same setting: the result for `COc1ccc(O)cc1` [Hydroquinone monomethyl ether, reference compound] reads 31 µM; that for `O=c1cc(CO)occ1O` [Kojic acid, reference compound], 2400 µM.
